Data published in ChEMBL document CHEMBL5724696, “Autophagy assay results for EUbOPEN Chemogenomics Library” (2024).

Experiments:
Assay type in all cases: functional, Homo sapiens
TERT-RPE1 = assay: (§1) Here: values are normalized to the negative (DMSO; defined as 0% autophagy induction) and positive (250nM Torin1; mTOR inhibitor; defined as maximal inducer of autophagy = 100%) control compounds and represented as % of autophagy induction. […] The impact of autophagy induction on cells is complex and depends on the affected target. As such, the magnitude of a phenotype may not be equally mirrored in the %-value of autophagy induction and vice versa. The dynamics of the induction may indicate the mode of activation: e.g. activation via phosphorylation or a signaling cascade may occur fast, while activation via transcription factors may take considerably longer. […] Of note, treatment concentrations may be sub-optimal for specific compounds, leading to false negative annotations.; settings: Culturing Media DMEM/F12 (1:1), 1 % Penicillin/Streptomycin, 10% Fetal bovin serum Add-On: No, Screening Media Control DMEM/F12 (1:1), Screening Media Samples DMEM/F12 (1:1)
U2OS [1] = assay: as §1; settings: Culturing Media DMEM, 1 % Penicillin/Streptomycin, 10% Fetal bovin serum Add-On: No, Screening Media Control DMEM, Screening Media Samples DMEM
U2OS [2] = assay: as §1; settings: Culturing Media DMEM, 1 % Penicillin/Streptomycin, 10% Fetal bovin serum Add-On: No, Screening Media Control DMEM, Screening Media Samples DMEM; remark: listed apart in the source
[3] = Compound Concentration 0.5 uM, Timepoint 12 hours
[4] = Compound Concentration 0.5 uM, Timepoint 24 hours
[5] = Compound Concentration 0.5 uM, Timepoint 36 hours
[6] = Compound Concentration 0.5 uM, Timepoint 60 hours
[7] = Compound Concentration 2 uM, Timepoint 12 hours
[8] = Compound Concentration 2 uM, Timepoint 24 hours
[9] = Compound Concentration 2 uM, Timepoint 36 hours
[10] = Compound Concentration 2 uM, Timepoint 60 hours
[11] = Compound Concentration 10 uM, Timepoint 12 hours
[12] = Compound Concentration 10 uM, Timepoint 24 hours
[13] = Compound Concentration 10 uM, Timepoint 36 hours
[14] = Compound Concentration 10 uM, Timepoint 60 hours

O=C1N/C(=N/c2ccccc2F)S/C1=C\c1ccc(C(=O)O)cc1
autophagy induction (TERT-RPE1; [3]): -10.0262%
autophagy induction (TERT-RPE1; [4]): -9.4115%
autophagy induction (TERT-RPE1; [5]): -12.0012%
autophagy induction (TERT-RPE1; [6]): -17.4269%
autophagy induction (TERT-RPE1; [7]): -2.621%
autophagy induction (TERT-RPE1; [8]): -7.325%
autophagy induction (TERT-RPE1; [9]): -9.455%
autophagy induction (TERT-RPE1; [10]): -13.9846%
autophagy induction (TERT-RPE1; [11]): -9.926%
autophagy induction (TERT-RPE1; [12]): -10.0998%
autophagy induction (TERT-RPE1; [13]): -12.1834%
autophagy induction (TERT-RPE1; [14]): -11.0664%
autophagy induction (U2OS [1]; [3]): 1.731%
autophagy induction (U2OS [1]; [4]): 0.03156%
autophagy induction (U2OS [1]; [5]): -1.478%
autophagy induction (U2OS [1]; [6]): 0.04429%
autophagy induction (U2OS [1]; [7]): 4.489%
autophagy induction (U2OS [1]; [8]): 0.7124%
autophagy induction (U2OS [1]; [9]): -0.5769%
autophagy induction (U2OS [1]; [10]): 0.3402%
autophagy induction (U2OS [1]; [11]): -30.0859%
autophagy induction (U2OS [1]; [12]): -13.2121%
autophagy induction (U2OS [1]; [13]): -8.741%
autophagy induction (U2OS [1]; [14]): -4.602%
autophagy induction (U2OS [2]; [3]): -6.588%
autophagy induction (U2OS [2]; [4]): -6.026%
autophagy induction (U2OS [2]; [5]): -1.651%
autophagy induction (U2OS [2]; [6]): -8.214%
autophagy induction (U2OS [2]; [7]): 1.845%
autophagy induction (U2OS [2]; [8]): 3.048%
autophagy induction (U2OS [2]; [9]): 0.4254%
autophagy induction (U2OS [2]; [10]): -3.587%
autophagy induction (U2OS [2]; [11]): 7.038%
autophagy induction (U2OS [2]; [12]): 3.001%
autophagy induction (U2OS [2]; [13]): 3.146%
autophagy induction (U2OS [2]; [14]): -8.731%

O=C(O)C1CN(Cc2ccc(OCc3ccc(Cl)c(Cl)c3)cc2)C1
autophagy induction (TERT-RPE1; [3]): -8.997%
autophagy induction (TERT-RPE1; [4]): -11.1742%
autophagy induction (TERT-RPE1; [5]): -13.4476%
autophagy induction (TERT-RPE1; [6]): -16.3767%
autophagy induction (TERT-RPE1; [7]): -4.026%
autophagy induction (TERT-RPE1; [8]): -8.149%
autophagy induction (TERT-RPE1; [9]): -12.0341%
autophagy induction (TERT-RPE1; [10]): -15.552%
autophagy induction (TERT-RPE1; [11]): -3.6803%
autophagy induction (TERT-RPE1; [12]): -2.7744%
autophagy induction (TERT-RPE1; [13]): -2.708%
autophagy induction (TERT-RPE1; [14]): -2.7926%
autophagy induction (U2OS [1]; [3]): -1.025%
autophagy induction (U2OS [1]; [4]): -0.5625%
autophagy induction (U2OS [1]; [5]): -1.224%
autophagy induction (U2OS [1]; [6]): -0.01663%
autophagy induction (U2OS [1]; [7]): 2.871%
autophagy induction (U2OS [1]; [8]): 0.8864%
autophagy induction (U2OS [1]; [9]): 0.6277%
autophagy induction (U2OS [1]; [10]): 0.8248%
autophagy induction (U2OS [1]; [11]): 1.474%
autophagy induction (U2OS [1]; [12]): 3.015%
autophagy induction (U2OS [1]; [13]): 1.861%
autophagy induction (U2OS [1]; [14]): 1.49%
autophagy induction (U2OS [2]; [3]): -6.393%
autophagy induction (U2OS [2]; [4]): -7.561%
autophagy induction (U2OS [2]; [5]): -8.567%
autophagy induction (U2OS [2]; [6]): -6.096%
autophagy induction (U2OS [2]; [7]): 2.736%
autophagy induction (U2OS [2]; [8]): -0.6379%
autophagy induction (U2OS [2]; [9]): 3.003%
autophagy induction (U2OS [2]; [10]): 6.192%
autophagy induction (U2OS [2]; [11]): 4.494%
autophagy induction (U2OS [2]; [12]): -1.815%
autophagy induction (U2OS [2]; [13]): -1.999%
autophagy induction (U2OS [2]; [14]): -2.676%
